Laboratory results reported in PMC6222787, “Anti-Inflammatory Activities of Compounds Isolated from the Rhizome of Anemarrhena asphodeloides” (Molecules : A Journal of Synthetic Chemistry and Natural …, 2018).

Experiments:
[1] = test system: scopolamine-induced cognition deficits; design: method as in PMID 27444169; settings: mice; cited from earlier work
neuronal injury = test system: neuronal injury; design: method as in PMID 23287539; settings: cited from earlier work
IL-6 [2] = assay: LPS-induced IL-6 production (ELISA); assay type: cell-based, mouse; settings: pretreated 1 h, LPS 100 ng/mL 24 h
Method: (§1) Figure 5 Effects of TBIII (A) and t-HL (B) on LPS-induced production of pro-inflammatory cytokines in N9 microglial cells. Cells were pre-treated with TBIII and t-HL for 1 h and then stimulated with LPS (100 ng/mL) for 24 h. The protein levels of TNF-α and IL-6 determined by ELISA according to manufacturer′s instructions. PAR (10 μM) was used as a positive control. The data were obtained from three independent experiments and expressed as the means ± S.E.M. * p < 0.05, ** p < 0.01, *** p < 0.001 versus the LPS-treated group; ^## p < 0.01, ^### p < 0.001 versus the control group.
(§2) N9 cells were plated into 24-well plates (2 × 10^5 cells/well). After cells became adherent, they were pretreated with different concentrations of TBIII and t-HL for 1 h before stimulation with 100 ng/mL of LPS. The supernatants of cultured medium were collected and the production of TNF-α and IL-6 was measured after incubation for 24 h using an ELISA kit according to manufacturer′s instructions.

TNF-α [3] = assay: LPS-induced TNF-α mRNA expression (real-time PCR); assay type: cell-based, mouse; settings: pretreated 1 h, LPS 100 ng/mL 4 h, dose-dependent
Method: (§3) Figure 4 Effects of TBIII (A) and t-HL (B) on LPS-induced mRNA expression of pro-inflammatory cytokines in N9 microglial cells. Cells were treated with different concentrations of TBIII and t-HL for 1 h and then stimulated with LPS (100 ng/mL) for 4 h. TNF-α and IL-6 mRNA levels were determined by real-time PCR analysis. […] The data were obtained from three independent experiments and expressed as the means ± […] < 0.001 versus the LPS-treated group; ^### p < 0.001 versus the control group. Total RNA was extracted from cells using Trizol reagent (Invitrogen, Carlsbad, CA, USA). Reverse transcription of RNA was performed with the Reverse Transcription System […] kit (Promega, Madison, WI, USA) according to the manufacturer's protocol. The complementary DNA (cDNA) was subsequently subjected to Real-Time PCR to quantify the transcripts of TNF-α and IL-6 using SYBR® Green Real-time PCR Master Mix (TOYOBO, Osaka, Japan). […] The primers for the mouse housekeeping gene glyceraldehyde-3-phosphate dehydrogenase ([…] was performed according to the following conditions: 94 °C for 3 min, 40 cycles of denaturation at 94 °C for 30 s, annealing at 56 °C for 45 s, extension at 72 °C for 30 s, followed by a final extension at 72 °C for 10 min. The quantified fold changes in messenger RNA (mRNA) in each sample were normalized to GAPDH expression and calculated using the 2exp (-ΔΔCt) method.

Akt = assay: LPS-induced activation of Akt (Western blot); assay type: cell-based, mouse; settings: pretreated 1 h, LPS 100 ng/mL
Method: (§4) Figure 6 Effect of TBIII and t-HL on LPS-induced activation of Akt (A,C) and NF-κB (B,D) in N9 cells. Cells were treated with different concentrations of TBIII and t-HL for 1 h prior to stimulation with LPS (100 ng/mL). Nuclear and cytoplasmic proteins were obtained and analyzed by western blot. PAR (10 μM) was used as a positive control. The data shown represent the mean ± S.E.M of three independent experiments. * p < 0.05, ** p < 0.01, *** p < 0.001 versus the LPS-treated group; ^# p < 0.05, ^## p < 0.01, ^### p < 0.001 versus the control group.
(§5) N9 cells were plated into 12-well plates (4 × 10^5 cells/well) and pretreated with different concentrations of TBIII and t-HL for 1 h, then stimulated by 100 ng/mL of LPS for 24 h. Nuclear and cytoplasmic proteins were obtained with nuclear and cytoplasmic protein extraction kit (Beyotime Biotechnology, Shanghai, China) according to the manufacturer′s protocol. Proteins were collected by SDS-PAGE Sample Loading Buffer (Yeasen, Shanghai, China) and heated at 99 °C for 10 min. Proteins in sample loading buffer were separated on 10% sodium dodecyl sulfate (SDS)-polyacrylamide gel electrophoresis (PAGE) and followed by transferring to nitrocellulose membranes (Whatman Protran, Dassel, Germany). […] The immunoreactive bands were quantified using the NIH Image J software (NIH, Bethesda, MD, USA).

NF-κB = assay: LPS-induced activation of NF-κB (Western blot, nuclear p65); assay type: cell-based, mouse; settings: pretreated 1 h, LPS 100 ng/mL
Method: as §4, §5

[4] = test system: LPS-induced NO production in N9 microglial cells; assay: LPS-induced NO production (Griess assay); assay type: cell-based, mouse; settings: LPS 100 ng/mL, 24 h; for Nitrite: control 4.60, LPS group 31.81 μM
Method: Figure 2 Inhibitory effects of TBIII (A) and t-HL (B) in LPS-stimulated N9 microglial cells. Cells were pretreated with different concentrations of TBIII and t-HL 1 h prior to the addition of LPS (100 ng/mL) and were further incubated for 24 h. NO production was determined by using the Griess reagent. IC50 values and curve fitting were determined using Graphpad Prism (GraphPad, Avenida, CA, USA).
Accumulation of nitrite, a metabolite of NO in the culture media, was measured by Griess assay as previously reported. Briefly, cells were stimulated with 100 ng/mL of LPS for 24 h in the presence of the test compounds (0–50 μM).

iNOS = iNOS expression by Western blot in LPS-stimulated N9 cells; assay type: cell-based, mouse; settings: pretreated 1 h, LPS 100 ng/mL 24 h, dose-dependent
Method: Figure 3 Effects of TBIII (A) and t-HL (B) on the expression of iNOS induced by LPS in N9 microglial cells. The iNOS protein levels were analyzed by Western blot. Cells were treated with different concentrations of TBIII and t-HL for 1 h and then stimulated with LPS (100 ng/mL) for 24 h. The iNOS signal was normalized to the β-actin signal. Parthenolide (PAR, 10 μM) was used as a positive control. The data were obtained from three independent experiments and expressed as the means ± S.E.M. * p < 0.05, ** p < 0.01, *** p < 0.001 versus the LPS-treated group; ^### p < 0.001 versus the control group.
as §5

IL-6 [5] = assay: LPS-induced IL-6 mRNA expression (real-time PCR); assay type: cell-based, mouse; settings: pretreated 1 h, LPS 100 ng/mL 4 h, dose-dependent
Method: as §3

TNF-α [6] = assay: LPS-induced TNF-α production (ELISA); assay type: cell-based, mouse; settings: pretreated 1 h, LPS 100 ng/mL 24 h
Method: as §1, §2

[7] = MTT assay for cell viability; settings: mouse, N9 microglial cells, % Cell Viability, 24 h, MTT, mean ± S.E.M.
Method: (§6) The N9 microglial cell line was obtained from China Cell Line Bank. The cells were grown at 37 °C in IMDM supplemented with 10% heat-inactivated FBS under a humidified atmosphere of 5% CO2. In this experiment, cells were allowed to acclimate for 24 h before treatments.
(§7) Cell viability was evaluated by the MTT reduction assay [36]. Cells were seeded in 96-well plates at a density of 2 × 10^4 cells/well and allowed to grow for 24 h before treatments. Thereafter, 100 μL medium containing various concentrations (0–50 μM) of compounds were added and incubated for another 24 h. MTT was dissolved in DD water (5 mg/mL) and 10 μL were added to each well. After 4 h, the medium was removed and 100 μL DMSO were filled in each well. The optical density was measured at 490 nm on a Flexstation 3 (Molecular Devices, Silicon Valley, CA, USA).

N9 microglial cells = assay: MTT assay for cell viability; settings: MTT
Method: as §6, §7

Compound	effect on scopolamine-induced cognition deficits [1]	effect on neuronal injury (neuronal injury)	IL-6 production (protein) (IL-6 [2])	TNF-α mRNA expression (TNF-α [3])	phosphorylation of Akt / PI3K/Akt signaling activation (Akt)	NF-κB signaling / p65 subunit into nuclei (NF-κB)	Nitrite ([4]; 25 μM compound, mean ± S.E.M.)	Nitrite ([4]; 50 μM compound, mean ± S.E.M.)	% Inhibition of NO Production ([4]; 50 μM compound, mean ± S.E.M., 50 µM)	inhibition at 25 µM ([4]; Mus musculus, N9, 24 h, 25 μM compound, mean ± S.E.M., read-out: % Inhibition of NO Production)	inhibition at 50 µM ([4]; Mus musculus, N9, 24 h, 50 μM compound, mean ± S.E.M., read-out: % Inhibition of NO Production)	IC50 ([4]; Mus musculus, N9, pretreated 1 h, Griess reagent, read-out: IC50, inhibition of NO production)	iNOS protein expression (iNOS)	IL-6 mRNA expression (IL-6 [5])	TNF-α production (protein) (TNF-α [6])	viability at 24 h, 25 µM ([7]; 25 μM compound)	viability at 24 h, 50 µM ([7]; 50 μM compound)	cytotoxicity against N9 microglial cells (in words) (N9 microglial cells)
C[C@@H](CC[C@@]1(O)O[C@H]2C[C@H]3[C@@H]4CC[C@@H]5C[C@@H](O[C@@H]6O[C@H](CO)[C@H](O)[C@H](O)[C@H]6O[C@@H]6O[C@H](CO)[C@@H](O)[C@H](O)[C@H]6O)CC[C@]5(C)[C@H]4CC[C@]3(C)[C@H]2[C@@H]1C)CO[C@@H]1O[C@H](CO)[C@@H](O)[C@H](O)[C@H]1O [Timosaponin BII]	ameliorate scopolamine-induced cognition deficits																	
C=CC(C=Cc1ccc(O)cc1)c1ccc(O)cc1 (stereo not drawn) [Compound 23, trans-Hinokiresinol]		protective effect	significantly suppressed	significantly suppressed	not affected	significantly prevented	14.93 ± 0.41 µM	5.18 ± 0.06 µM	83.73 ± 0.22 %	> 50%	83%	39.1 µM	significantly attenuated	significantly suppressed	significantly suppressed	108 ± 4.39%	98.3 ± 11.6%	non-cytotoxic
